Several values for one entry are separate records, joined by “and”; a condition that tells them apart may be missing. Equal values may be shown once.
Target: T1, canine TRPM8 (Canis lupus familiaris, UniProt Q1A7N1)
T1 construct: expressed in transfected cells
Assay: In Vitro Canine TRPM8 Functional Assay (Ca2+ fluorescence, icilin activation)
Type: cell-based
Conditions: for inhibition at 0.2 µM: HEK293, 0.2 μM compound; for IC50: HEK293 cells stably expressing canine TRPM8, icilin activation, Ca2+ fluorescence; for inhibition at 0.5 µM: HEK293, 0.5 μM compound; for % Inh @ 0.2 μM: 0.2 μM compound; for inhibition at 1 µM: HEK293, 1 μM compound; for % Inh @ 0.5 μM: 0.5 μM compound
Procedure, shortened: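 Antagonism read as inhibition of the intracellular Ca2+ rise evoked by icilin (~EC80), measured by FLIPR or FDSS. Stable canine TRPM8 HEK293 line, Calcium 3 dye; 5 min compound preincubation. Normalised, basal-corrected peak fluorescence from quadruplicates fitted to sigmoidal curves.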

[1] = canine TRPM8 HEK293, icilin, 0.2 µM
[2] = canine TRPM8 HEK293, icilin, 0.5 µM

T1 sequence (Q1A7N1 1-1104): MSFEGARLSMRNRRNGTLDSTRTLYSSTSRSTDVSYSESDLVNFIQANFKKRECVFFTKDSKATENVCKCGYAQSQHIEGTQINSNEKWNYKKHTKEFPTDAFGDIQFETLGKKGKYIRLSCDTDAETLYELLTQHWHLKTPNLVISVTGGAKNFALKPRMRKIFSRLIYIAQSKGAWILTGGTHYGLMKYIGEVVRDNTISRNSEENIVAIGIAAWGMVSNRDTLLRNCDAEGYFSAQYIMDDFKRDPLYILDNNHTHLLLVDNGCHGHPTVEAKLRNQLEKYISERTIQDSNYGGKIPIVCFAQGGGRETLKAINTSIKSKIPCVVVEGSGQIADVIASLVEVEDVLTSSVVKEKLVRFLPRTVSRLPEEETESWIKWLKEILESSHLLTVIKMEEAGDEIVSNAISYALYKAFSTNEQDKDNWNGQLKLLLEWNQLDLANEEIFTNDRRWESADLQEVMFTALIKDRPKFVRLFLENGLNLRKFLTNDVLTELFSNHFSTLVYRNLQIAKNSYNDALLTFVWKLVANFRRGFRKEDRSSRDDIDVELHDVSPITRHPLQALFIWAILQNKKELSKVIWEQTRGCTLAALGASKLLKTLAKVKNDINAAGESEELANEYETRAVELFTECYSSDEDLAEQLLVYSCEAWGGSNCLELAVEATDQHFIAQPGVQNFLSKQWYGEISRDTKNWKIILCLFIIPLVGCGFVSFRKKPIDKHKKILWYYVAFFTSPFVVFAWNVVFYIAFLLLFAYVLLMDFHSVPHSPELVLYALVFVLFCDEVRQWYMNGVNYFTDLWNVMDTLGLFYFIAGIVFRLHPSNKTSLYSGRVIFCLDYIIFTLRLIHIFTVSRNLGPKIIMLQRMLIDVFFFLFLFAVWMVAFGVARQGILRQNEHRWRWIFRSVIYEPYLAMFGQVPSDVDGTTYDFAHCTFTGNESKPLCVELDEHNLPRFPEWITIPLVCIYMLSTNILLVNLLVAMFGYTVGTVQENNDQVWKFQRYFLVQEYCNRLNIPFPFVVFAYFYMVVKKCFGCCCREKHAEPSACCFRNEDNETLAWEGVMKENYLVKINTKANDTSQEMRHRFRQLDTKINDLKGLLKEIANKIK

Row | SMILES | inhibition at 0.2 µM (canine TRPM8 HEK293, icilin) | IC50 | other results
1 | O=C(C(Nc1ccccc1)c1ccc(C(F)(F)F)cc1)N1CCCC1c1cc2ccccc2[nH]1 (stereo not drawn) [Cpd 25] | – | 141 nM | inhibition at 0.5 µM (canine TRPM8 HEK293, icilin): 102%
2 | CS(=O)(=O)c1ccc(C(Nc2ccccc2F)C(=O)N2CCCC2c2ccccc2F)cc1 (mixture of isomers) [Cpd 224] | – | – | % Inh @ 0.2 μM (canine TRPM8 HEK293, icilin): 55%
3 | O=C(O)c1ccc(C2CCCN2C(=O)C(Nc2ccccc2F)c2ccc(C(F)(F)F)cc2)cc1 (stereo not drawn) [Cpd 222] | 93% | 66 nM | –
4 | COC(=O)C1CCC(c2ccccc2)N1C(=O)C(Nc1c(F)cccc1F)c1ccc(Br)cc1 (stereo not drawn) [Cpd 211] | – | – | % Inh @ 0.2 μM [1]: 69%
5 | O=C(C(Nc1ccccc1F)c1ccc(C(F)(F)F)cc1)N1CCCC1c1cncc(Br)c1 (single isomer, unassigned) [Cpd 346] | – | 38 nM | % Inh @ 0.2 μM [1]: 97%
6 | O=C(C(Nc1ccccc1)c1ccccn1)N1CCCC1c1ccccc1F (racemic) [Cpd 218] | – | – | % Inh @ 0.2 μM [1]: 49%
7 | CC(C)(C)c1ccc(C(Nc2ccccc2)C(=O)N2CCCC2c2ccccc2)cc1 (stereo not drawn) [Cpd 12] | – | 60.6 nM | inhibition at 1 µM (canine TRPM8 HEK293, icilin): 103%
8 | COC(=O)c1ccc(C2CCCN2C(=O)C(Nc2ccccc2F)c2cc3ccccc3s2)cc1 (stereo not drawn) [Cpd 325] | 101% | 62 nM | –
9 | COc1ccccc1C1CCCN1C(=O)C(Nc1ccccc1F)c1ccc(Cl)cc1 (stereo not drawn) [Cpd 111] | – | 13 nM | inhibition at 0.5 µM (canine TRPM8 HEK293, icilin): 96%
10 | O=C(C(Nc1ccccc1F)c1ccc(C(F)(F)F)cc1)N1CCCC1c1ccc(F)cc1 (stereo not drawn) [Cpd 135] | – | 37.4 nM | inhibition at 0.5 µM (canine TRPM8 HEK293, icilin): 100%
11 | O=C(C(Nc1ccccc1F)c1ccc2cccnc2c1)N1CCCC1c1ccccc1F (stereo not drawn) [Cpd 284] | 92% | 20 nM and 26 nM | % Inh @ 0.2 μM [1]: 95%
12 | O=C(C(Nc1ccccc1)c1cnc2ccccc2c1)N1CCCC1c1ccccc1F (stereo not drawn) [Cpd 264] | 93% | 43 nM | –
13 | O=C(C(Nc1ccccc1)c1ccc(C(F)(F)F)cc1)N1CCCC1c1ccccc1Cl (single isomer, unassigned) [Cpd 369] | – | – | % Inh @ 0.5 μM (canine TRPM8 HEK293, icilin): 7.773%; % Inh @ 3 μM (3 μM compound, canine TRPM8 HEK293, icilin): 48%
14 | O=C(C(Nc1ccccc1)c1ccccn1)N1CCCC1c1ccccc1F (stereo not drawn) [Cpd 217] | – | – | % Inh @ 0.2 μM [1]: 26%
15 | COc1ccccc1C1CCCN1C(=O)C(Nc1ccccc1)c1ccc(Cl)cc1 (stereo not drawn) [Cpd 85] | – | 6 nM | inhibition at 0.5 µM (canine TRPM8 HEK293, icilin): 97%
16 | O=C(C(Nc1ccccc1)c1ccc(C(F)(F)F)cc1)N1CCCCC1c1ccccc1 (stereo not drawn) [Cpd 44] | – | 57.6 nM | inhibition at 0.5 µM (canine TRPM8 HEK293, icilin): 101%
17 | O=C(C(Nc1ccccc1F)c1ccc(C(F)(F)F)cc1)N1CCCC1c1ccccn1 (stereo not drawn) [Cpd 202] | 100% | 25 nM | –
18 | O=C(C(Nc1ccccc1F)c1ccc(Br)cc1)N1CCCC1c1ccccc1F (single isomer, unassigned) [Cpd 160] | – | 39 nM and 13 nM | % Inh @ 0.2 μM [1]: 87%; % Inh @ 0.5 μM [2]: 95%
19 | O=C(C(Nc1ccc(F)cc1F)c1ccc(Cl)cc1)N1CCCC1c1ccccc1Cl (stereo not drawn) [Cpd 122] | – | 147 nM | inhibition at 0.5 µM (canine TRPM8 HEK293, icilin): 96%
20 | O=C(C(Nc1ccccc1F)c1cc2ccccc2s1)N1CCCC1c1ccccc1F (stereo not drawn) [Cpd 225, 2-Benzo[b]thiophen-2-yl-2-(2-fluoro-phenylamino)-1-[2-(2-fluoro-phenyl)-pyrrolidin-1-yl]-ethanone] | 98% | 7 nM | –
21 | O=C(C(Nc1ccccc1)c1cccnc1)N1Cc2ccccc2C1 (racemic) [Cpd 215] | – | – | % Inh @ 0.2 μM (canine TRPM8 HEK293, icilin): 18%
22 | O=C(C(Nc1ccccc1F)c1ccc(-n2ccnc2)cc1)N1CCCC1c1ccccc1F (stereo not drawn) [Cpd 301] | 99% | 35 nM | –

Row | SMILES | inhibition at 0.2 µM (canine TRPM8 HEK293, icilin) | IC50 | other results
23 | COC(=O)C1CCC(c2ccccc2)N1C(=O)C(Nc1ccccc1F)c1ccc(Br)cc1 (stereo not drawn) [Cpd 195] | – | – | % Inh @ 0.2 μM [1]: 32%
24 | CN(c1ccccc1F)C(C(=O)N1CCCC1c1ccccc1F)c1ccc(C(F)(F)F)cc1 (stereo not drawn) [Cpd 233] | – | – | % Inh @ 0.2 μM (canine TRPM8 HEK293, icilin): 10%
25 | O=C(C(Nc1ccccc1F)c1ccc(-n2ccnc2)cc1)N1CCCC1c1ccccc1Cl (stereo not drawn) [Cpd 342] | 100% | 28 nM | –
26 | O=C(C(Nc1ccc(F)cc1)c1ccc(Cl)cc1)N1CCCC1c1ccccc1F (stereo not drawn) [Cpd 117] | – | 47.5 nM | inhibition at 0.5 µM (canine TRPM8 HEK293, icilin): 101%
27 | O=C(C(Nc1ccccc1F)c1ccc(-c2cccnc2)cc1)N1CCCC1c1ccccc1Cl (stereo not drawn) [Cpd 343] | 101% | 17 nM | –
28 | O=C(C(Nc1ccccc1F)c1ccc(C(F)(F)F)cc1)N1CCCC1c1ccccc1Cl (stereo not drawn) [Cpd 188] | – | – | % Inh @ 0.2 μM (canine TRPM8 HEK293, icilin): 30%
29 | O=C(NN1CCCC1c1ccccc1Cl)C(Nc1ccccc1)c1ccc(C(F)(F)F)cc1 (stereo not drawn) [Cpd 63, N-[2-(2-Chloro-phenyl)-pyrrolidin-1-yl]-2-phenylamino-2-(4-trifluoromethyl-phenyl)-acetamide] | – | – | inhibition at 0.5 µM (canine TRPM8 HEK293, icilin): 36%
30 | O=C(C(Nc1ccccc1)c1ccccc1Cl)N1CCCC1c1ccccc1Cl (mixture of isomers) [Cpd 362] | – | – | % Inh @ 0.5 μM (canine TRPM8 HEK293, icilin): 21.91%
31 | O=C(C(Nc1ccccc1)c1ccc(C(F)(F)F)cc1)N1CCCC1c1ccccc1Cl (racemic) [Cpd 16] | – | 21.6 nM | inhibition at 1 µM (canine TRPM8 HEK293, icilin): 103%
32 | O=C(C(Nc1ccccc1)c1ccc(C(F)(F)F)cc1)N1CCCC1c1ccccc1C(F)(F)F (single isomer, unassigned) [Cpd 30] | – | 110 nM | inhibition at 0.5 µM (canine TRPM8 HEK293, icilin): 103%
33 | O=C(C(Nc1cc(F)ccc1F)c1ccc(Cl)cc1)N1CCCC1c1ccccc1Cl (stereo not drawn) [Cpd 171] | 98% | 41.8 nM | –
34 | CC(C)(C)c1ccc(C(Nc2ccccc2)C(=O)N2CCC(c3ccccc3)C2)cc1 (stereo not drawn) [Cpd 13] | – | 323 nM | inhibition at 1 µM (canine TRPM8 HEK293, icilin): 103%
35 | COC(=O)C1CCC(c2ccccc2)N1C(=O)C(Nc1ccccc1F)c1ccc(Br)cc1 (stereo not drawn) [Cpd 196] | – | – | % Inh @ 0.2 μM [1]: 41%
36 | O=C(C(Nc1ccccc1F)c1ccc(C(F)(F)F)cc1)N1CCCC1c1cncc(Br)c1 (single isomer, unassigned) [Cpd 345] | 92% | 44 nM | –
37 | Cc1ccccc1C1CCCN1C(=O)C(Nc1ccccc1)c1ccc(C(F)(F)F)cc1 (stereo not drawn) [Cpd 32] | – | 31.2 nM | inhibition at 0.5 µM (canine TRPM8 HEK293, icilin): 104%
38 | CN1CCN(NC(=O)[C@H](Nc2ccccc2)c2ccc(C(C)(C)C)cc2)[C@H](c2ccccc2)C1 (relative stereo) [Cpd 56, (2RS*)-2-(4-tert-Butyl-phenyl)-N-[(2RS*)-4-methyl-2-phenyl-piperazin-1-yl]-2-phenylamino-acetamide] | – | – | % Inh @ 0.5 μM (canine TRPM8 HEK293, icilin): 26%
39 | O=C(C(Cc1ccccc1F)c1ccc(C(F)(F)F)cc1)N1Cc2ccccc2C1 (stereo not drawn) [Cpd 200] | 89% | 55 nM | –
40 | O=C(C(Nc1c(F)cccc1F)c1ccc(Cl)cc1)N1CCCC1c1ccccc1 (stereo not drawn) [Cpd 146] | – | 12 nM | inhibition at 0.5 µM (canine TRPM8 HEK293, icilin): 99%
41 | O=C(C(Nc1ccccc1F)c1ccc(C(F)(F)F)cc1)N1CCCC1c1ccccc1Cl (single isomer, unassigned) [Cpd 189] | 98% | 9 nM | –
42 | O=C(C(Cc1c(F)cccc1F)c1ccc(C(F)(F)F)cc1)N1CCCC1c1ccccc1F (stereo not drawn) [Cpd 244, 3-(2,6-Difluoro-phenyl)-1-[2-(2-fluoro-phenyl)-pyrrolidin-1-yl]-2-(4-trifluoromethyl-phenyl)-propan-1-one] | 98% | 16.7 nM | –
43 | O=C(C(Nc1c(F)cccc1F)c1cc2ccccc2s1)N1CCCC1c1ccccc1F (stereo not drawn) [Cpd 361] | 96% | 8 nM | –

Continued, in another order:

Row | inhibition at 0.2 µM (canine TRPM8 HEK293, icilin) | IC50 | SMILES | other results
44 | 101% | 6 nM | O=C(C(Nc1ccccc1F)c1cc2ccccc2s1)N1CCCC1c1ccccn1 (single isomer, unassigned) [Cpd 330] | –
45 | – | 9 nM | O=C(C(Nc1ccccc1F)c1ccc(C(F)(F)F)cc1)N1CCCC1c1cccc(F)c1 (stereo not drawn) [Cpd 132] | inhibition at 0.5 µM (canine TRPM8 HEK293, icilin): 99%
46 | 93% | 4 nM and 8 nM | O=C(C(Nc1ccccc1F)c1cnc2ccccc2c1)N1CCC[C@H]1c1ccccc1F (single isomer, unassigned) [Cpd 280] | % Inh @ 0.2 μM [1]: 101%
47 | – | 56 nM | O=C(O)c1ccc(-c2ccc(C(Nc3ccccc3F)C(=O)N3CCCC3c3ccccc3F)cc2)cc1 (mixture of isomers) [Cpd 337] | % Inh @ 0.2 μM [1]: 91%
48 | 99% | 42 nM | O=C(O)c1ccc(-c2ccc(C(Nc3ccccc3F)C(=O)N3CCCC3c3ccccc3Cl)cc2)cc1 (stereo not drawn) [Cpd 350] | –
49 | – | 126 nM | O=C(C(Nc1ccccc1F)c1ccc(Cl)cc1)N1Cc2cccc(F)c2C1 (stereo not drawn) [Cpd 114] | inhibition at 0.5 µM (canine TRPM8 HEK293, icilin): 98%
50 | 98% | 2 nM | Nc1ccc(C2CCCN2C(=O)C(Nc2ccccc2F)c2ccc(Cl)cc2)cc1 (stereo not drawn) [Cpd 290] | –
51 | – | 36.2 nM | O=C([C@@H](CNc1ccccc1)c1ccc(C(F)(F)F)cc1)N1CCC[C@@H]1c1ccccc1 (relative stereo) [Cpd 130, 3-Phenylamino-1-[(2RS*)2-phenyl-pyrrolidin-1-yl]-(2RS*)-2-(4-trifluoromethyl-phenyl)-propan-1-one] | % Inh @ 0.5 μM (canine TRPM8 HEK293, icilin): 101%
52 | – | 18.1 nM | O=C(C(Nc1ccccc1F)c1ccc(Cl)cc1)N1CCCC1c1ccccc1 (stereo not drawn) [Cpd 112] | inhibition at 0.5 µM (canine TRPM8 HEK293, icilin): 96%
53 | – | 20 nM | O=C(C(Nc1ccccc1F)c1ccc(Br)cc1)N1CCCC1c1ccccc1Cl (stereo not drawn) [Cpd 89] | inhibition at 0.5 µM (canine TRPM8 HEK293, icilin): 98%
54 | 91% | 36 nM | O=C(C(Nc1ccccc1F)c1ccc(Cl)cc1)N1CCCc2ccccc21 (stereo not drawn) [Cpd 364] | –
55 | – | 26 nM | O=C(C(Nc1cccc(F)c1F)c1ccc(Cl)cc1)N1CCCC1c1ccccc1F (single isomer, unassigned) [Cpd 164] | % Inh @ 0.5 μM [2]: 96%
56 | – | 349 nM | CC(C)(C)c1ccc(C(Nc2ccccc2)C(=O)N2CCCCCC2c2ccccc2)cc1 (stereo not drawn) [Cpd 18] | inhibition at 1 µM (canine TRPM8 HEK293, icilin): 95.4%
57 | – | 119 nM | COc1ccc(NC(C(=O)N2CCCC2c2ccccc2OC)c2ccc(Cl)cc2)cc1 (stereo not drawn) [Cpd 138] | inhibition at 0.5 µM (canine TRPM8 HEK293, icilin): 95%
